Assay results as given in PMC11206988, “Study on the Effect of Pharmaceutical Excipient PEG400 on the Pharmacokinetics of Baicalin in Cells Based on MRP2, MRP3, and BCRP Efflux Transporters” (Pharmaceutics, 2024).
Read-outs that look alike come from different tables or passages of the source.

Assays:
Type in all cases: in vitro ADME
MDCK II-WT cells = experiment: Transport of baicalin across MDCK II-WT cell monolayer (transwell); conditions: MDCK II-WT
Protocol: (§1) The cells were inoculated at a density of 0.5 mL (1 × 10^5) in the upper layer of the transwell plate (AP side), and the culture was changed daily after the lower layer was added with 1.5 mL of complete medium without cells every other day. After 5–7 days of growth, the supernatant was aspirated and discarded, and the cell monolayer was rinsed twice with 37 °C Hank’s Balanced Salt Solution (HBSS, pH 7.4). The electrical resistance of the cell monolayer compartments was measured with a resistivity meter (TEER), and the integrity of the cell monolayer was monitored using TEER. The differentiation of MDCK II-WT, MDCK II-MRP2, MDCK II-MRP3, and MDCK II-BCRP cells was examined by determining sodium fluorescein permeability prior to transit experiments. This was done in order to determine the integrity of the cell monolayer. When the TEER value of the cell monolayer was greater than 150 Ω·cm^2 and the MDCK II-MRP2, MDCK II-MRP3, and MDCK II-BCRP sodium fluorescein permeability was less than 0.5 × 10^−6 cm/s or the MDCK II-WT sodium fluorescein permeability was less than 1 × 10^−6 cm/s, the cell monolayer was considered intact and suitable for transit experiments. TEER = (TEERcell monolayer − TEERblank) × Aarea(1) wherein TEERcell monolayer is the resistance of the cell monolayer read directly from the Millicell ERS-2 resistivity meter, and TEERblank is the resistance read by inserting a blank HBSS (no cells) only. Aarea is the surface area of the filter membrane, 1.12 cm^2.
(§2) In this experiment, a 100 μM baicalin solution (dissolved in HBSS) containing different concentrations of PEG400 (0.25%, 0.5%, and 1%) was employed as the test solution, while a solution without PEG400 was used as the blank test solution, which was added to AP or BL chambers, respectively. In the top to basolateral (AP-BL) transport experiment, the 0.5 mL sample added to the apical side (AP) was utilized as the supply room, and the HBSS preheated to 1.5 mL 37 °C was added to the basolateral (BL) as the receiving chamber. Conversely, in the basal low lateral to top (BL-AP) transport experiment, the 1.5 mL sample (dissolved in HBSS) was added to the BL side as the supply room, and the 0.5 mL preheated HBSS was added as a receiving room on the AP side. Once the aforementioned steps had been completed, the transwell was placed on a 37 °C thermostatic oscillator at 60 r/min, and 100 μL was withdrawn from the receiving cell or 10 μL from the supply chamber at 30, 60, 90, and 120 min, depending on the experiment, and replenished with an equal volume of blank 37 °C preheated HBSS. The samples were utilized to precipitate the proteins with 100 μL of methanol containing the internal standard for 10 min. After centrifugation at 16,000× g for 15 min at 4 °C, the supernatant was collected in a volume of 70 μL. The contents were determined by UPLC-MS/MS, and apparent permeability coefficients (PAPP) and efflux ratios (ER) were calculated.
(§3) The formulas for calculating Papp and ER of monolayer and monolayer are as follows:(2) Papp=dQ/dt/AC0 wherein dQ/dt (ng/mL·s) is the transit rate (ng/mL·s); A is the membrane area (1.12 cm^2); and C0 (ng/mL) is the initial concentration of the sample in the supply chamber. ER = PappBL-AP/PappAP-BL (3) wherein PappBL-AP is the apparent permeability coefficient when the BL is added to the sample, and PappAP-BL is the apparent permeability coefficient when the sample is added at the top side (AP).

[1] = as above; conditions: dog, MDCK, pH 7.4, MDCK II-WT; for efflux ratio at 120 min, 100 μM: read-out: ER
Protocol: as §1, §2, §3

BCRP = molecular target: T1, BCRP (Homo sapiens, UniProt Q9UNQ0); experiment: Transport of baicalin across MDCK II-BCRP cell monolayer (transwell); conditions: pH 7.4, MDCK II-BCRP
T1 construct: expressed in transfected cells; host or cells: MDCK II
T1 sequence (Q9UNQ0 1-655): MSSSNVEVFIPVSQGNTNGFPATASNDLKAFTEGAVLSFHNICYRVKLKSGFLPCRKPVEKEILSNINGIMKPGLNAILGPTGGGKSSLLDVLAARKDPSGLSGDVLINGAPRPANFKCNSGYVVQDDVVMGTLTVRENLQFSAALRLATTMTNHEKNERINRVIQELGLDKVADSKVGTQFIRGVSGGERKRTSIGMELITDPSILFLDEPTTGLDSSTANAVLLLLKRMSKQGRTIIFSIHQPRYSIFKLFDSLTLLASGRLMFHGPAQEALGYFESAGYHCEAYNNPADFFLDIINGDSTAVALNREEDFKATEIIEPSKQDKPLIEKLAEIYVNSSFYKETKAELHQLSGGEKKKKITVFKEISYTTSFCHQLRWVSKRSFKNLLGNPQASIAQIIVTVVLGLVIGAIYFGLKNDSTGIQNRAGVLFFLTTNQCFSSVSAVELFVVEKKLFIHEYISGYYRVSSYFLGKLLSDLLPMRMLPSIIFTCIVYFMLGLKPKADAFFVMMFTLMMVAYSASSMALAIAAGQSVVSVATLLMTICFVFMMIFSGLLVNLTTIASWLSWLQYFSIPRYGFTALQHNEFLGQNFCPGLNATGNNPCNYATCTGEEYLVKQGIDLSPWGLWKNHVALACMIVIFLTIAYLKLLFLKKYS
Protocol: as §1, §2, §3

## O=C(O)[C@H]1O[C@@H](Oc2cc3oc(-c4ccccc4)cc(=O)c3c(O)c2O)[C@H](O)[C@@H](O)[C@@H]1O [BG, Baicalein-7-O-β-D-glucuronide]
MDCK II-WT cells; 100 μM BG + 0.25% PEG400
  ER: 1.8 ± 0.44
MDCK II-WT cells; 100 μM BG + 0.5% PEG400
  ER: 1.29 ± 0.11
MDCK II-WT cells; 100 μM BG + 1% PEG400
  ER: 0.67 ± 0.07
MDCK II-WT cells; 100 μM BG alone
  ER: 3.64 ± 0.28
[1]; 100 μM BG + 0.25% PEG400
  Papp A→B at 120 min, 100 μM: 4.57 ± 1.08 ×10⁻⁶ cm/s
  Papp B→A at 120 min, 100 μM: 7.94 ± 0.99 ×10⁻⁶ cm/s
  efflux ratio at 120 min, 100 μM: 1.94 ± 0.27
[1]; 100 μM BG + 0.5% PEG400
  Papp A→B at 120 min, 100 μM: 5.24 ± 0.53 ×10⁻⁶ cm/s
  Papp B→A at 120 min, 100 μM: 6.78 ± 1.19 ×10⁻⁶ cm/s
  efflux ratio at 120 min, 100 μM: 1.53 ± 0.14
[1]; 100 μM BG + 1% PEG400
  Papp A→B at 120 min, 100 μM: 5.47 ± 0.94 ×10⁻⁶ cm/s
  Papp B→A at 120 min, 100 μM: 3.61 ± 0.26 ×10⁻⁶ cm/s
  efflux ratio at 120 min, 100 μM: 1.19 ± 0.12
[1]; 100 μM BG alone
  Papp A→B at 120 min, 100 μM: 3.18 ± 0.07 ×10⁻⁶ cm/s
  Papp B→A at 120 min, 100 μM: 11.6 ± 1 ×10⁻⁶ cm/s
  efflux ratio at 120 min, 100 μM: 2.58 ± 0.27
BCRP; 100 μM BG + 0.25% PEG400
  Papp A→B at 120 min, 100 μM: 5.64 ± 0.48 ×10⁻⁶ cm/s
  Papp B→A at 120 min, 100 μM: 8.98 ± 0.42 ×10⁻⁶ cm/s
BCRP; 100 μM BG + 0.25% PEG400, read-out: ER
  efflux ratio at 120 min, 100 μM: 1.59 ± 0.06
BCRP; 100 μM BG + 0.5% PEG400
  Papp A→B at 120 min, 100 μM: 7.4 ± 0.43 ×10⁻⁶ cm/s
  Papp B→A at 120 min, 100 μM: 7.51 ± 0.47 ×10⁻⁶ cm/s
BCRP; 100 μM BG + 0.5% PEG400, read-out: ER
  efflux ratio at 120 min, 100 μM: 1.02 ± 0.04
BCRP; 100 μM BG + 1% PEG400
  Papp A→B at 120 min, 100 μM: 8.59 ± 0.19 ×10⁻⁶ cm/s
  Papp B→A at 120 min, 100 μM: 6.9 ± 0.04 ×10⁻⁶ cm/s
BCRP; 100 μM BG + 1% PEG400, read-out: ER
  efflux ratio at 120 min, 100 μM: 0.8 ± 0.02
BCRP; 100 μM BG alone
  Papp A→B at 120 min, 100 μM: 3.43 ± 0.07 ×10⁻⁶ cm/s
  Papp B→A at 120 min, 100 μM: 10.34 ± 0.02 ×10⁻⁶ cm/s
BCRP; 100 μM BG alone, read-out: ER
  efflux ratio at 120 min, 100 μM: 3.01 ± 0.05
